Assay results from patent publication US20150119422A1, “SIMETHICONE FORMULATION” (DISPHAR INTERNATIONAL B.V., priority 2011, published 2015).
Where a name gives a salt, the structure may show the parent alone.

Format: physicochemical
Conditions: pH range of 1 to 7
Method: Dissolution studies for determining release of the active ingredient at various pHs were carried out using a TDT-08 L dissolution apparatus from Electrolab®.
The above-mentioned tablets were studied for release profile, at 30 minutes, in solutions of varied pH such as 1.2, 4.5 and 6.8 respectively in aqueous solutions of 0.1 N HCl, acetate buffer and phosphate buffer.

CN(C)C(=O)C(CCN1CCC(O)(c2ccc(Cl)cc2)CC1)(c1ccccc1)c1ccccc1 [loperamide hydrochloride]
pH dependence of release / dissolution: pH dependent dissolution characteristics
